In patent US9856240B2, “Compounds that modulate intracellular calcium” (CalciMedica, Inc., priority 2011, dated 2018):

Legend:
[1] = biological target: T1, recombinant human STIM1 and Orai1 (HEK-293 cells) (Homo sapiens, UniProt Q96D31); assay: Fluorescence-based assay of store-operated calcium entry in Orai1/STIM1 stable cells; assay type: cell-based; set-up: key to Orai1/STIM1 (IC50, μmol): A < 0.6 μmol; 0.6 μmol ≦ B ≦ 1.2 μmol; C > 1.2 μmol; — = no fit; conditions: for IC50: FLIPR fluo-4, read-out: Orai1/STIM1 (IC50, μmol); for Orai1/STIM1 (IC50, μmol): FLIPR fluo-4
T1 construct: expressed in transfected cells; host or cells: HEK-293 cells stably expressing both proteins
T1 sequence (Q96D31 whole entry): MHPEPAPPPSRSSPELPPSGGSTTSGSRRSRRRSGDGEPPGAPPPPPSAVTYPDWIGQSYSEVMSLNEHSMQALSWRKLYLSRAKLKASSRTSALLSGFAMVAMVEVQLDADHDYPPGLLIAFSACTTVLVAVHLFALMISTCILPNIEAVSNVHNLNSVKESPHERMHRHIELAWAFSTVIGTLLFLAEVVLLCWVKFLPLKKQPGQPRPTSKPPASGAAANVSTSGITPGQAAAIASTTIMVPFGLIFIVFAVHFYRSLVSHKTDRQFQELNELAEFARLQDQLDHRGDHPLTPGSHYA
Procedure: A. Fluorescence-Based Assay of Store-Operated Calcium Entry in Orai1/STIM1 Stable Cells.
Cells stably expressing recombinant human STIM1 and Orai1 are generated by transfecting a human Orai1 expression plasmid (pcDNA3.1-Orai1-cmyc) into HEK-293 cells stably overexpressing human STIM1 (Roos et al. 2005 JCB 169(3): 435-445). Colonies of cells stably expressing both STIM1 and Orai1 proteins are selected and then subcloned by limiting dilution. Cells were cultured at 37° C./6% CO2 in complete medium with 10% FBS and appropriate selection markers.
The day prior to performing the assay Orai1/STIM1 stable cells are plated in 50 μL of complete medium at 90-95% confluence in a 384 well plate. Cells are grown at 37° C./6% CO2 overnight. On the day of the assay, 1.5 μM fluo-4-AM (Invitrogen) in complete medium is added to the cells, which are then incubated for 1 hour at RT. Cells are washed once in Ca^2+-free HBSS (Hank's buffered saline solution) and 35 μl of Ca^2+-free HBSS is added to each well. Test compounds are added to wells in a 10 μL Ca^2+-free HBSS solution, prepared at 4.5× the desired final concentration, and incubated for 30 minutes at RT. The initial baseline fluorescence signal is then measured with a FLIPR^384 (Molecular Devices) plate reader. Calcium entry is initiated by adding 5 μl of 10× CaCl2 (10 mM) in HBSS, and changes in cellular fluorescence are measured with the FLIPR^384 plate reader. In each well, the magnitude of the fluorescence signal as a result of calcium entry into the cell is determined by calculating the difference between the peak fluorescence signal measured after calcium addition and the initial baseline fluorescence signal (designated Peak-Basal). IC50 values are typically calculated as the concentration that inhibited 50% of the Peak-Basal signal (Table A).

[2] = test system: store-operated calcium entry in RBL-2H3 cells; assay: Fluorescence-based assay of store-operated calcium entry in RBL-2H3 cells; assay type: cell-based; conditions: Rattus norvegicus, thapsigargin, FLIPR Fluo-4, read-out: RBL-2H3 (IC50, μmol)
Procedure: B. Fluorescence-Based Assay of Store-Operated Calcium Entry in RBL-2H3 Cells.
RBL-2H3 cells are obtained from ATCC and maintained in complete medium with 10% FBS at 37° C./6% CO2.
The day prior to performing the assay, RBL-2H3 cells are plated in 50 μL of complete medium in a 384 well plate. Cells are grown at 37° C./6% CO2 overnight and grow to 50-60% confluence by the next day. On the assay day, 1.5 μM Fluo-4-AM dye (Invitrogen) in complete medium is added and incubated for 1 hour at RT. Cells are washed twice in Ca^2+-free HBSS buffer and 35 μL Ca^2+-free HBSS buffer is added to each well. 10 μL of a test compound prepared in a Ca^2+-free HBSS solution at 4.5× of the desired concentration is added to a well and incubated for 5 minutes at RT. 10 μL of thapsigargin prepared in a Ca^2+-free HBSS solution at 5.5× of the desired concentration (5.5 uM) is added to each well and incubated for an additional 25 minutes. The initial baseline fluorescence signal is measured with a FLIPR^384 (Molecular Devices) plate reader. 5 μL of 12× calcium in HBSS (12 mM) is added and changes in cellular fluorescence are measured with the FLIPR^384 plate reader. In each well, the change in the fluorescent signal as a function of time due to calcium entry into the cell is determined by calculating the difference between the fluorescent signal measured 7 seconds after calcium addition and the initial baseline fluorescence signal at time zero (t=0). This parameter is designated Upslope. The IC50 value is calculated as the concentration at which 50% of the Upslope is inhibited.

Structure (SMILES) | IC50 [1] [nM] | IC50 [2] [nM] | Orai1/STIM1 (IC50, μmol) [1]
Cc1nocc1C(=O)Nc1ccc(-c2cc3c(cc2Cl)OC(F)(F)O3)cn1 [Example 18, N-(5-(6-chloro-2,2-difluorobenzo[d][1,3]dioxol-5-yl)pyridin-2-yl)-3-methylisoxazole-4-carboxamide] | < 600 | < 600 | 
Cc1cnoc1C(=O)Nc1ccc(-c2cc3c(cc2Cl)OC(F)(F)O3)cn1 [Example 20, N-(5-(6-chloro-2,2-difluorobenzo[d][1,3]dioxol-5-yl)pyridin-2-yl)-4-methylisoxazole-5-carboxamide] | < 600 | < 600 | 
Cn1nc(C(F)(F)F)c(Cl)c1C(=O)Nc1cnc(-c2cc3c(cc2Cl)OC(F)(F)O3)cn1 [Example 24, 4-chloro-N-(5-(6-chloro-2,2-difluorobenzo[d][1,3]dioxol-5-yl)pyrazin-2-yl)-1-methyl-3-(trifluoromethyl)-1H-pyrazole-5-carboxamide] |  | < 600 | —
Cc1onc(C(=O)Nc2cnc(-c3cc4c(cc3Cl)OC(F)(F)O4)cn2)c1C [Example 25, N-(5-(6-chloro-2,2-difluorobenzo[d][1,3]dioxol-5-yl)pyrazin-2-yl)-4,5-dimethylisoxazole-3-carboxamide] | 600 to 1200 | < 600 | 
Cc1cc(C(=O)Nc2cnc(-c3cc4c(cc3Cl)OC(F)(F)O4)cn2)n(C)n1 [Example 27, N-(5-(6-chloro-2,2-difluorobenzo[d][1,3]dioxol-5-yl)pyrazin-2-yl)-1,3-dimethyl-1H-pyrazole-5-carboxamide] | 600 to 1200 | > 1200 | 
Cn1ncc(Cl)c1C(=O)Nc1cnc(-c2cc3c(cc2Cl)OC(F)(F)O3)cn1 [Example 29, 4-chloro-N-(5-(6-chloro-2,2-difluorobenzo[d][1,3]dioxol-5-yl)pyrazin-2-yl)-1-methyl-1H-pyrazole-5-carboxamide] | < 600 | < 600 | 
Cc1noc(C)c1C(=O)Nc1cnc(-c2cc3c(cc2Cl)OC(F)(F)O3)cn1 [Example 31, N-(5-(6-chloro-2,2-difluorobenzo[d][1,3]dioxol-5-yl)pyrazin-2-yl)-3,5-dimethylisoxazole-4-carboxamide] | 600 to 1200 | < 600 | 
CCn1nccc1C(=O)Nc1cnc(-c2cc3c(cc2Cl)OC(F)(F)O3)cn1 [Example 32, N-(5-(6-chloro-2,2-difluorobenzo[d][1,3]dioxol-5-yl)pyrazin-2-yl)-1-ethyl-1H-pyrazole-5-carboxamide] | < 600 | < 600 | 
O=C(Nc1cnc(-c2cc3c(cc2Cl)OC(F)(F)O3)cn1)c1ccnn1C(F)F [Example 33, N-(5-(6-chloro-2,2-difluorobenzo[d][1,3]dioxol-5-yl)pyrazin-2-yl)-1-(difluoromethyl)-1H-pyrazole-5-carboxamide] |  | < 600 | —
Cc1cc2c(cc1-c1ccc(NC(=O)c3cccn3C)nc1)OC(F)(F)O2 [Example 34, N-(5-(2,2-difluoro-6-methylbenzo[d][1,3]dioxol-5-yl)pyridin-2-yl)-1-methyl-1H-pyrrole-2-carboxamide] | 600 to 1200 | < 600 | 
Cc1cc2c(cc1-c1cnc(NC(=O)c3c(Cl)cnn3C)cn1)OC(F)(F)O2 [Example 35, 4-chloro-N-(5-(2,2-difluoro-6-methylbenzo[d][1,3]dioxol-5-yl)pyrazin-2-yl)-1-methyl-1H-pyrazole-5-carboxamide] | < 600 | < 600 | 
Cc1cc2c(cc1-c1cnc(NC(=O)c3c(Cl)c(C(F)(F)F)nn3C)cn1)OC(F)(F)O2 [Example 37, 4-chloro-N-(5-(2,2-difluoro-6-methylbenzo[d][1,3]dioxol-5-yl)pyrazin-2-yl)-1-methyl-3-(trifluoromethyl)-1H-pyrazole-5-carboxamide] | 600 to 1200 | < 600 | 
Cc1cc2c(cc1-c1cnc(NC(=O)c3c(C)noc3C)cn1)OC(F)(F)O2 [Example 38, N-(5-(2,2-difluoro-6-methylbenzo[d][1,3]dioxol-5-yl)pyrazin-2-yl)-3,5-dimethylisoxazole-4-carboxamide] | > 1200 | < 600 | 
Cn1nc(C(F)(F)F)cc1-c1cnc(NC(=O)c2c(Cl)cnn2C)cn1 [Example 39, 4-chloro-1-methyl-N-(5-(1-methyl-3-(trifluoromethyl)-1H-pyrazol-5-yl)pyrazin-2-yl)-1H-pyrazole-5-carboxamide] | > 1200 | > 1200 | 
Cc1nn(C)c(C(=O)Nc2cnc(-c3cc(C(F)(F)F)nn3C)cn2)c1Cl [Example 40, 4-chloro-1,3-dimethyl-N-(5-(1-methyl-3-(trifluoromethyl)-1H-pyrazol-5-yl)pyrazin-2-yl)-1H-pyrazole-5-carboxamide] | > 1200 | > 1200 | 
Cn1nc(C(F)(F)F)cc1-c1cnc(NC(=O)c2c(Cl)c(C(F)(F)F)nn2C)cn1 [Example 41, 4-chloro-1-methyl-N-(5-(1-methyl-3-(trifluoromethyl)-1H-pyrazol-5-yl)pyrazin-2-yl)-3-(trifluoromethyl)-1H-pyrazole-5-carboxamide] | > 1200 | > 1200 | 
Cc1noc(C)c1C(=O)Nc1cnc(-c2cc(C(F)(F)F)nn2C)cn1 [Example 42, 3,5-dimethyl-N-(5-(1-methyl-3-(trifluoromethyl)-1H-pyrazol-5-yl)pyrazin-2-yl)isoxazole-4-carboxamide] | > 1200 | > 1200 | 
O=C(Nc1ncc(Oc2ccccc2C(F)(F)F)s1)c1c(F)cccc1F [Example 43, (2,6-difluorophenyl)-N-{5-[2-(trifluoromethyl)phenoxy](1,3-thiazol-2-yl)}carboxamide] | > 1200 | 600 to 1200 | 
